Results on one compound are retold here after patent publication EP2149374A1 (WORLD-TRADE IMPORT-EXPORT, WTIE, A.G., priority 2007, dated 2008).

The nature of assay [1]: Comparative clinical study: general urine examination (leukocytes in urine sediments, urine pH). The assay is classed as in vivo, patients. The conditions noted are these: n=50 per group. An excerpt:
(§1) Urinary tract infection constitutes the most frequent urologic disease and is one of the most common infections in human beings. Urinary infection encompasses several clinical conditions, so the proper study thereof is very important for a suitable diagnose and treatment, in view of the extensive and not inconsiderable hospital and healthcare expenses these involve.
(§2) Inclusion criteria were the following: • - Patients from 18 to 75 years of age. • - Patients having a non-complex acute urinary infection diagnose. • > 12 leukocytes per mm3 in urine sediments. • - Urine counts of > 100,000 UFC/ml. • - Urine pH over 6.0. • - Microorganism identification.
(§3) Only twice a day for 5 days,- group 2, received Vitamin C 100 mg.
General urine examination determined the color, appearance and density thereof, as well as the pH, Proteins, Glucose, Ketones, Blood, Bilirubin, Urobilinogen, Nitrites, Density and Leukocytes. […] Table 2. Leukocytes per mm3 in baseline urine sediments and up to Day 5 of the treatment.

For a further assay, the system named is E. coli. Description: Comparative clinical study: urocultive by antibiogram, urine counts (colony-forming units). The assay is classed as in vivo, Escherichia coli. The conditions noted are these: n=50 per group.
From the text: as §1, §2, §3
Table 4. Urine Counts in UFC/ml. (Colony-Forming Units).

Assay [2] in a line: Comparative clinical study: overall healing process (conclusions). The conditions noted are these: patients with acute non-complex urinary tract infection, 5 days of treatment. The assay is classed as in vivo. How it is done: as §1, §3

For `O=C1O[C@H]([C@@H](O)CO)C(O)=C1O` [Vitamin C, Ascorbic Acid], the “pH (Day 1)” value in assay [1] (baseline urine pH, before treatment) was 7.6. Moreover, in assay [1] (baseline urine sediments, before treatment), the “Leukocytes (Day 1)” value was over 13 per mm3. In assay [1] (urine pH, Day 5 of the treatment, twice a day for 5 days), the “pH (Day 5)” value came out at 5.0. Besides, the “Leukocytes Day 5” value in assay [1] (urine sediments, Day 5 of the treatment, twice a day for 5 days) is under 10 per mm3. Besides, the “UFC/ml (Day 1)” value with E. coli (baseline urine counts (Colony-Forming Units), before treatment) is given as >100,000/ml. UFC/ml. Besides, the “UFC/ml Day 5” value in the assay on E. coli (urine counts (Colony-Forming Units), Day 5 of the treatment, twice a day for 5 days) was 90.000/ml. UFC/ml. The healing process result in assay [2] was “not sufficient by itself to achieve a healing process”.
